The source of these data is patent US20190330142A1, “INHIBITORS OF MTOR-DEPTOR INTERACTIONS AND METHODS OF USE THEREOF” (The Regents of the University of California, priority 2016, published 2019).

Where two headings read alike, the source gives them in different places.

The test system of one data set is RAPTOR-silenced MM cells. Briefly: MTT cytotoxicity in RAPTOR-silenced MM cells. In kind it is cell-based. The note with it: 48 hrs. On the procedure:
(§1) FIG. 5A-FIG. 5E depict exemplary assay data of compounds disclosed herein. […] Therapeutic indices (TIs) calculated as IC50 PBLs/IC50 for 8226 cells.
(§2) To compare anti-myeloma efficacy to non-specific toxicity, each of these 5 active derivatives were compared to compound B in their ability to inhibit survival of 8226 MM cells versus normal peripheral blood lymphocytes (PBLs). In head-to-head experiments, IC50 values for each target were calculated and compared. […] These derivatives were also tested for their anti-MM cytotoxicity in isogenic lines with RAPTOR knockdown.
The short hairpin RNAs (shRNA)/pLKO.1, targeting RAPTOR or a scrambled sequence (control) were obtained from Addgene. Lentivirus was produced by the UCLA Vector Core facility and stable cell lines were made by transducing cells with lentivirus and selecting in […].

The next data set concerns 8226 cells. Description: apoptosis assay (activated caspase 3, flow cytometry) in 8226 cells. The class given is cell-based. Conditions: 48 hrs. On the procedure: (§3) These were then studied in more detail. […] This was clearly shown for 4d, 4e, 4 g, and 3 g.
To identify apoptotic cells, a phycoerythrin (PE)-conjugated antibody specific for activated caspase 3 (BD Biosciences) was used. For staining, 10^6 cells were washed with PB S and fixed and permeabilized with 0.5 ml cytofix/cytoperm solution. The cells were then incubated with a 1:5 dilution of PE-conjugated monoclonal anti-caspase 3 antibody for 30 mins and analyzed by flow cytometry.
For orientation: A flow cytometer gives signals particle by particle.

The next data set relates to MM1.S MM cell line. Description: MTT cytotoxicity assay, MM1.S cells. The class given is cell-based. The note with it: Homo sapiens, 48 hr. On the technique in general: Tetrazolium dyes change colour on reduction, which living cells bring about.
Data set [1] has as its system p70 phosphorylation (mTORC1 activity) in 8226 cells. Description: p70 phosphorylation Western blot (TORC1 activity) in 8226 cells. In kind it is cell-based. Conditions: 6 hrs; for p70 phosphorylation vs compound B at lower concentrations: as low as 0.25 uM. On the procedure: In mTORC1, mTOR phosphorylates the p70S6 kinase.
(§4) The 8226 and MM1.S myeloma cell lines were purchased from ATCC. The cell lines were characterized by FISH analysis and shown to contain MAF/Ig translocations. Western blot confirmed a significant over-expression of DEPTOR protein. Both lines were tested for mycoplasma within the last 6 months and were negative. Western blot assay—Protein was extracted and separated by 12.5% SDS-PAGE as previously described (see new ref below). Proteins were transferred to polyvinylidene difluoride membranes and their expression was detected utilizing specific antibodies purchased from Cell Signaling (Beverly, Mass.).

The next data set has as its system p21 expression. Briefly: p21 expression immunoblot. The class given is cell-based. On the procedure: as §3, §4
For orientation: Immunoblotting shows a protein as a band on a membrane.

Another data set has as its system 8226 MM cell line. Description: MTT cytotoxicity assay, 8226 MM cells. Conditions: for anti-MM cytotoxicity in MTT assay compared to parent B: 48 hr MTT. On the procedure:
In mTORC1, mTOR phosphorylates the p70S6 kinase. Thus, a Western blot was used to test for induction of p70 phosphorylation in this secondary screen. Compounds were tested at 0.5, 1, and 2 uM with 6 hrs in vitro exposure. […] A summary of the p70 phosphorylation data from 4 separate experiments where derivatives were used at 0.5 uM, is shown in FIG. 3B. These first 8 derivatives were also screened for cytotoxicity against the same 8226 MM cell line in 48 hr MTT assays.
P70 phosphorylation was measured in 8226 cells treated for 6 hrs. […] The structures and biological activity of all derivatives are shown in Tables 1-4, categorized by structural modification.
The MTT assay was performed by seeding 1-2×10^4 target cells in 0.1 ml of complete media into wells of a 96 well microtiter plate. After incubation with compounds, the reduction of MTT to formazan by live cells was determined with a microplate ELISA reader equipped with a 570 nm filter.
The induction of p70 phosphorylation by derivative compounds was determined by densitometry, comparing immunoblot signals of phosphorylated p70 vs total p70. This ratio was then compared to that resulting from parental compound B, with the latter ratio arbitrarily placed at ‘1’. The IC50 for MTT cytotoxicity was determined using a range of concentrations of derivatives. Percent apoptosis was enumerated by flow cytometry in drug-treated cultures by subtracting control apoptosis determined from DMSO-treated cultures.

Data set [2] has as its system normal peripheral blood lymphocytes (PBLs). Briefly: survival of normal peripheral blood lymphocytes versus 8226 MM cells. The class given is cell-based. Conditions: 48 hr assays. On the procedure:
as §1, §2

The target in another data set is T1, DEPTOR/mTOR binding (Homo sapiens, UniProt Q8TB45).
T1 construct: Western blot confirmed a significant over-expression of DEPTOR protein; host or cells: 8226 multiple myeloma cells
T1 sequence (Q8TB45 whole entry): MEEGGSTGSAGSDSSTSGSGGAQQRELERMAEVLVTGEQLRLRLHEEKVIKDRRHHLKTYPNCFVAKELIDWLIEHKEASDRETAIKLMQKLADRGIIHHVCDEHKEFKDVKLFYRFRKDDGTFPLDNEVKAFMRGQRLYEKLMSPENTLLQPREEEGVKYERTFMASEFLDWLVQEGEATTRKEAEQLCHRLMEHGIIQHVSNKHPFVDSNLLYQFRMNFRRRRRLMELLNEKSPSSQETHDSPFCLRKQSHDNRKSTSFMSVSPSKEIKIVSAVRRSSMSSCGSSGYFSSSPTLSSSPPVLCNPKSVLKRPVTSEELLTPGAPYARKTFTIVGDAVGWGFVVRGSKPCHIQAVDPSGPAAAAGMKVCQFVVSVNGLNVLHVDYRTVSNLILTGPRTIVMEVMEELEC
Description: DEPTOR/mTOR co-immunoprecipitation in 8226 MM cells. The class given is cell-based. Conditions: for DEPTOR/mTOR binding in MM cells: 6 hrs.

For the next data set, the system named is OPM2. Description: therapeutic index against OPM2 myeloma cell line. In kind it is cell-based. An excerpt:
(§5) FIG. 6A-FIG. 6D depict exemplary assay data for compounds disclosed herein. […] FIG. 6D highlights IC50 data for 3 g and Compound B (NSC126405).

Another data set concerns the target T2, DEPTOR (Homo sapiens, UniProt Q8TB45).
T2 construct: endogenous in cells
Briefly: DEPTOR degradation. In kind it is cell-based. An excerpt: FIG. 7A-FIG. 7F depict exemplary assay data for compounds disclosed herein. […] FIG. 7E and FIG. 7F depict data showing the anti-tumor effect was blunted by further transfection of DEPTOR to over-express the protein.

The test system of the next data set is H929. Briefly: therapeutic index against H929 myeloma cell line. The class given is cell-based.
Description: as §5

Another data set has as its system 8226 myeloma tumors. Description: subcutaneous xenograft tumor model of myeloma growth. Conditions: 20 mg/kg IP daily for 4 days. The class given is in vivo, mice. Here is the method:
Peripheral blood was analyzed for white blood cell (WBC), hematocrit (HCT), hemoglobin concentration (HgI) and platelet count.
Briefly, mice were challenged subcutaneously with 5×10^6 8226 cells and when myeloma tumors reached 500 mm^3, mice were treated with DMSO, compound B, or compound 3g (at 20 mg/kg) IP daily for 4 days. Tumor size (mean+/−SD, n=5) was assessed each day (FIG. 8A). *=different from control (DMSO), p<0.05, **=different from compound B, p<0.05. After 4 days of treatment, mice were sacrificed and peripheral blood analyzed for WBC, hematocrit (HCT), hemoglobin concentration (HgI) and platelet count (FIG. 8B). Data are % of control (determination in DMSO-Rx'd mice), mean+/−SD, n=5. *=different from DMSO control, p<0.05.

For data set [3], the system named is normal hematopoietic colony forming cells. Briefly: colony formation of normal hematopoietic colony forming cells. In kind it is cell-based. Conditions: concentrations as high as 10 μM. An excerpt:
(§6) The third compound, NSC118305, presented several positions for variation but we were worried about the conjugated diene unit since such polyolefinic units might give a rise to non-selective toxicity. […] Therefore the final compound shown, NSC 126405, which was called simply compound B, was chosen as the first compound to modify to try to improve its activity.

For the next data set, the target named is T3, DEPTOR-mTOR interaction (Homo sapiens, UniProt Q8TB45).
T3 construct: expressed in transfected cells; host or cells: yeast (two-hybrid)
T3 sequence (Q8TB45 whole entry): as above
Description: yeast-2-hybrid screen of NCI library. The class given is cell-based. Conditions: pilot screening, hits.
Description: as §6

[4] abbreviates: 48 h, read-out: MTT (IC50, uM) 8226.

T2 sequence (Q8TB45 whole entry): as above
Description for MM1.S MM cell line: The MTT assay was performed by seeding 1-2×10^4 target cells in 0.1 ml of complete media into wells of a 96 well microtiter plate. After incubation with compounds, the reduction of MTT to formazan by live cells was determined with a microplate ELISA reader equipped with a 570 nm filter. Quadruplicate wells were run for each group and the SD of each group was always <5% of the mean.

Take `CC(C)(C)OC(=O)NN=C1C(Cl)=C(Cl)C(Cl)=C1Cl` [4g, tert-Butyl 2-(perchlorocyclopenta-2,4-dien-1-ylidene)hydrazine-1-carboxylate]: in the data set with RAPTOR-silenced MM cells, the “cytotoxicity against RAPTOR-silenced MM cells vs control shSCRAMBLE” value is “significantly decreased cytotoxicity”. Besides, in the data set with 8226 cells, the “apoptosis activity compared to parent compound B” value is on record as “enhanced compared to parent compound B”. The IC50 (as a rule, the point on the concentration scale where inhibition reaches its midpoint) in the data set on MM1.S MM cell line worked out at 0.6 µM; in the data set on 8226 MM cell line (setting [4]), 0.1 µM. The “p70 phosphorylation vs compound B at lower concentrations” value in [1] is “significantly more effective”. In the data set with p21 expression, the “p21 expression compared to parent compound B” value is “enhanced p21 expression”. Also, in the data set on 8226 MM cell line, the “anti-MM cytotoxicity in MTT assay compared to parent B” value is given as “enhanced cytotoxic effects”. The “therapeutic index (IC50 PBLs/IC50 for 8226 cells) compared to compound B” value in [2] is “significantly improved therapeutic indices”. At DEPTOR/mTOR binding (0.5 uM), the “DEPTOR/mTOR binding in MM cells” value was “prevented DEPTOR/mTOR binding”.
With `FC(F)(F)c1cccc(NN=C2C(Cl)=C(Cl)C(Cl)=C2Cl)c1` [compound 3g, 1-(Perchlorocyclopenta-2,4-dien-1-ylidene)-2-(3-(trifluoromethyl)phenyl)hydrazine], the “cytotoxicity against RAPTOR-silenced MM cells vs control shSCRAMBLE” value with RAPTOR-silenced MM cells is “significantly decreased cytotoxicity”. In addition, the “therapeutic index versus NSC126405” value in the data set with OPM2 and in the data set on H929 was “enhanced therapeutic index” in each case. For the same molecule, in the data set with 8226 cells, the “apoptosis activity compared to parent compound B” value is reported as “enhanced compared to parent compound B”. For the same molecule, the IC50 in the data set on MM1.S MM cell line came to 1 µM; in the data set on 8226 MM cell line (setting [4]), 0.17 µM. The “p70 phosphorylation vs compound B at lower concentrations” value in data set [1] is listed as “significantly more effective”. Besides, the “degradation of DEPTOR” value on DEPTOR was “induces the rapid proteasome-dependent degradation of DEPTOR”. Besides, the “p21 expression compared to parent compound B” value with p21 expression is “enhanced p21 expression”. For the same molecule, the “anti-MM cytotoxicity in MTT assay compared to parent B” value in the data set with 8226 MM cell line is “enhanced cytotoxic effects”. Moreover, the entries for the “therapeutic index (IC50 PBLs/IC50 for 8226 cells) compared to compound B” value in [2] and in [2] (listed as 3 g) were “enhanced therapeutic index” and “significantly improved therapeutic indices”, respectively. The “DEPTOR/mTOR binding in MM cells” value at DEPTOR/mTOR binding (0.5 uM) was “prevented DEPTOR/mTOR binding”. Moreover, on DEPTOR/mTOR binding (concentration not given), the “binding of DEPTOR to mTOR” value is “inhibits binding of DEPTOR to mTOR”. The “anti-tumor efficacy (tumor size)” value with 8226 myeloma tumors is given as “more efficacious than NSC 126405”. Also, the “effect on normal WBC counts” value in the data set with 8226 myeloma tumors (peripheral blood) was “only a minimal effect”.
Regarding `NN=C1C(Cl)=C(Cl)C(Cl)=C1Cl` [compound B, (Perchlorocyclopenta-2,4-dien-1-ylidene)hydrazine, reference compound], the “toxicity to normal hematopoietic colony formation” value in data set [3] is on record as “not toxic to colony formation”. In addition, the IC50 came to 3 µM in the data set with MM1.S MM cell line; 1.3 µM in the data set on 8226 MM cell line (48 h, read-out: MTT (IC50, uM) 8226, 48 hr); 1.5 µM in the data set on 8226 MM cell line (read-out: MTT (IC50, uM) 8226, 48 hr). In addition, the “induction of p70 phosphorylation” value in [1] (8226 cells, 0.5 uM, compared to compound B) is on record as “consistently ineffective”. Further, the “inhibition of the DEPTOR-mTOR interaction” value against DEPTOR-mTOR interaction was “specifically inhibited the DEPTOR-mTOR interaction”. Further, the “DEPTOR/mTOR binding in MM cells” value is listed as “ineffective” at DEPTOR/mTOR binding (0.5 uM) and “prevents DEPTOR/mTOR binding” on DEPTOR/mTOR binding (1 uM).
